From patent US20140073634A1 (Institute For Applied Cancer Science/The University of …, priority 2012, published 2014) come the findings set out here.

Some results are limits rather than exact numbers.

As usually defined, the IC50 is the midpoint of a concentration-inhibition curve. Read a high IC50 as weaker potency in that assay.

The experiment deals with 293T-HRE-GFP-luc cells. The experiment can be described thus: Cell-based reporter assay for IC50 determinations (HRE-luciferase, hypoxia). The following applies: 6 h, 6 hrs hypoxia (1% O2), luminescence. In a few lines: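 IC50s come from four-parameter logistic fits of luminescence. Compounds in 1:3 DMSO series were added to 293T-HRE-GFP-luc cells, 30 min normoxia preceding 6 hrs at 1% O2, 37° C; HRE-luciferase signal was then measured with Steadylite Plus reagent.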
The molecule `CNC(=O)c1cc(Cn2nc(-c3nc(-c4ccc(OC(F)(F)F)cc4)no3)ccc2=O)ccc1F` [Example 140, 2-fluoro-N-methyl-5-[(6-oxo-3-{3-[4-(trifluoromethoxy)phenyl]-1,2,4-oxadiazol-5-yl}-1,6-dihydropyridazin-1-yl)methyl]benzamide] returned an IC50 of less than 100 nM.
With `O=c1ccc(-c2nc(-c3ccc(OC(F)(F)F)cc3)no2)cn1Cc1cccc(Br)c1` [Example 141, 1-[(3-bromophenyl)methyl]-5-{3-[4-(trifluoromethoxy)phenyl]-1,2,4-oxadiazol-5-yl}-1,2-dihydropyridin-2-one], the IC50 lay in the range of 100 to 1000 nM.
`O=C(Cc1cccc(Cn2nc(-c3nc(-c4ccc(OC(F)(F)F)cc4)no3)ccc2=O)c1)N1CCOCC1` [Example 142, 2-({3-[2-(morpholin-4-yl)-2-oxoethyl]phenyl}methyl)-6-{3-[4-(trifluoromethoxy)phenyl]-1,2,4-oxadiazol-5-yl}-2,3-dihydropyridazin-3-one] gave an IC50 of 100 to 1000 nM.
The value for `CN1CCN(C(=O)Cc2cccc(Cn3nc(-c4nc(-c5ccc(OC(F)(F)F)cc5)no4)ccc3=O)c2)CC1` [Example 143, 2-({3-[2-(4-methylpiperazin-1-yl)-2-oxoethyl]phenyl}methyl)-6-{3-[4-(trifluoromethoxy)phenyl]-1,2,4-oxadiazol-5-yl}-2,3-dihydropyridazin-3-one] was 100 to 1000 nM; that for `O=c1ccc(-c2nc(-c3ccc(OC(F)(F)F)cc3)no2)cn1Cc1cccc(N2CCOCC2)c1` [Example 144, 1-{[3-(morpholin-4-yl)phenyl]methyl}-5-{3-[4-(trifluoromethoxy)phenyl]-1,2,4-oxadiazol-5-yl}-1,2-dihydropyridin-2-one] was less than 100 nM.
The value for `CN(C)c1cccc(Cn2cc(-c3nc(-c4ccc(OC(F)(F)F)cc4)no3)ccc2=O)c1` [Example 145, 1-{[3-(dimethylamino)phenyl]methyl}-5-{3-[4-(trifluoromethoxy)phenyl]-1,2,4-oxadiazol-5-yl}-1,2-dihydropyridin-2-one] was less than 100 nM; that for `O=c1ccc(-c2nc(-c3ccc(OC(F)(F)F)cc3)no2)cn1Cc1cccc([N+](=O)[O-])c1` [Example 146, 1-[(3-nitrophenyl)methyl]-5-{3-[4-(trifluoromethoxy)phenyl]-1,2,4-oxadiazol-5-yl}-1,2-dihydropyridin-2-one] was 100 to 1000 nM.
In the case of `O=c1ccc(-c2nc(-c3ccc(OC(F)(F)F)cc3)no2)cn1Cc1cccc(OCCO)c1` [Example 147, 1-{[3-(2-hydroxyethoxy)phenyl]methyl}-5-{3-[4-(trifluoromethoxy)phenyl]-1,2,4-oxadiazol-5-yl}-1,2-dihydropyridin-2-one] it was less than 100 nM.
The molecule `CCOc1cccc(Cn2cc(-c3nc(-c4ccc(OC(F)(F)F)cc4)no3)ccc2=O)c1` [Example 148, 1-[(3-ethoxyphenyl)methyl]-5-{3-[4-(trifluoromethoxy)phenyl]-1,2,4-oxadiazol-5-yl}-1,2-dihydropyridin-2-one] gave an IC50 of less than 100 nM.
The value for `CN(C)C(=O)COc1cccc(Cn2cc(-c3nc(-c4ccc(OC(F)(F)F)cc4)no3)ccc2=O)c1` [Example 149, N,N-dimethyl-2-{3-[(2-oxo-5-{3-[4-(trifluoromethoxy)phenyl]-1,2,4-oxadiazol-5-yl}-1,2-dihydropyridin-1-yl)methyl]phenoxy}acetamide] was less than 100 nM; that for `CC(C)(C)OC(=O)NCCOc1cccc(Cn2cc(-c3nc(-c4ccc(OC(F)(F)F)cc4)no3)ccc2=O)c1` [Example 150, tert-butyl N-(2-{3-[(2-oxo-5-{3-[4-(trifluoromethoxy)phenyl]-1,2,4-oxadiazol-5-yl}-1,2-dihydropyridin-1-yl)methyl]phenoxy}ethyl)carbamate] was less than 100 nM.
The molecule `Cc1cccc(Cn2cc(-c3nc(-c4ccc(OC(F)(F)F)cc4)no3)ccc2=O)c1` [Example 152, 1-[(3-methylphenyl)methyl]-5-{3-[4-(trifluoromethoxy)phenyl]-1,2,4-oxadiazo-5-yl}-1,2-dihydropyridin-2-one] registered an IC50 of less than 100 nM.
The value for `N#CC1CCN(c2cc(Cn3cc(-c4nc(-c5ccc(OC(F)(F)F)cc5)no4)ccc3=O)ccn2)CC1` [Example 153, 1-{4-[(2-oxo-5-{3-[4-(trifluoromethoxy)phenyl]-1,2,4-oxadiazol-5-yl}-1,2-dihydropyridin-1-yl)methyl]pyridin-2-yl}piperidine-4-carbonitrile] was less than 100 nM; that for `CC1(C)CCN(c2cc(Cn3cc(-c4nc(-c5ccc(OC(F)(F)F)cc5)no4)ccc3=O)ccn2)CC1` [Example 154, 1-{[2-(4,4-dimethylpiperidin-1-yl)pyridin-4-yl]methyl}-5-{3-[4-(trifluoromethoxy)phenyl]-1,2,4-oxadiazol-5-yl}-1,2-dihydropyridin-2-one] was less than 100 nM.
In the case of `COC(=O)Cc1cccc(Cn2cc(-c3nc(-c4ccc(OC(F)(F)F)cc4)no3)ccc2=O)c1` [Example 155, methyl 2-{3-[(2-oxo-5-{3-[4-(trifluoromethoxy)phenyl]-1,2,4-oxadiazol-5-yl}-1,2-dihydropyridin-1-yl)methyl]phenyl}acetate] it was less than 100 nM; in that of `CN1CCN(C(=O)Cc2cccc(Cn3cc(-c4nc(-c5ccc(OC(F)(F)F)cc5)no4)ccc3=O)c2)CC1` [Example 156, 1-({3-[2-(4-methylpiperazin-1-yl)-2-oxoethyl]phenyl}methyl)-5-{3-[4-(trifluoromethoxy)phenyl]-1,2,4-oxadiazol-5-yl}-1,2-dihydropyridin-2-one], less than 100 nM; in that of `CN(C)C(=O)Cc1cccc(Cn2cc(-c3nc(-c4ccc(OC(F)(F)F)cc4)no3)ccc2=O)c1` [Example 157, N,N-dimethyl-2-{3-[(2-oxo-5-{3-[4-(trifluoromethoxy)phenyl]-1,2,4-oxadiazol-5-yl}-1,2-dihydropyridin-1-yl)methyl]phenyl}acetamide], less than 100 nM.
In the case of `O=c1ccc(-c2nc(-c3ccc(OC(F)(F)F)cc3)no2)cn1Cc1ccnc(N2CCOCC2)c1` [Example 158, 1-{[2-(morpholin-4-yl)pyridin-4-yl]methyl}-5-{3-[4-(trifluoromethoxy)phenyl]-1,2,4-oxadiazol-5-yl}-1,2-dihydropyridin-2-one], the IC50 was less than 100 nM.
In the case of `O=c1ccc(-c2nc(-c3ccc(OC(F)(F)F)cc3)no2)cn1Cc1ccnc(N2CCCC2)c1` [Example 159, 1-{[2-(pyrrolidin-1-yl)pyridin-4-yl]methyl}-5-{3-[4-(trifluoromethoxy)phenyl]-1,2,4-oxadiazol-5-yl}-1,2-dihydropyridin-2-one] it was less than 100 nM.
The value for `O=c1ccc(-c2nc(-c3ccc(OC(F)(F)F)cc3)no2)cn1Cc1cccc(N2CCCCC2)c1` [Example 160, 1-{[3-(piperidin-1-yl)phenyl]methyl}-5-{3-[4-(trifluoromethoxy)phenyl]-1,2,4-oxadiazol-5-yl}-1,2-dihydropyridin-2-one] was less than 100 nM; that for `CCS(=O)(=O)c1cccc(Cn2cc(-c3nc(-c4ccc(OC(F)(F)F)cc4)no3)ccc2=O)c1` [Example 161, 1-{[3-(ethanesulfonyl)phenyl]methyl}-5-{3-[4-(trifluoromethoxy)phenyl]-1,2,4-oxadiazol-5-yl}-1,2-dihydropyridin-2-one] was less than 100 nM.
